# Results: patent US9464076B2, “Benzothiophene derivative” (Daiichi Sankyo Company, Limited, priority 2013, dated 2016)
# Where a name gives a salt, the structure may show the parent alone.
# Tests used:
# [1] = target: PDE10A (H-PDE10A2, Human Phosphodiesterase 10A2) (Homo sapiens (Human), UniProt Q9Y233); assay: Measurement of PDE10A inhibitory activity-1 (3H-cAMP, recombinant enzyme); type: biochemical; settings: H-PDE10A2, 64 nM cAMP, 25° C., 2 hours
# Experimental: To a solution containing 20 mM Tris-HCl (pH 7.5), 1 mM MgCl2, 100 μM EDTA, 330 μg/ml bovine serum albumin, 50 kU/ml 5′-nucleotidase, 0.1 μCi ^3H-cAMP (64 nM cAMP), and PDE10A (H-PDE10A2, Human Phosphodiesterase 10A2, Scottish Biomedical), a test compound was added, and the mixture was reacted at 25° C. for 2 hours. To the reaction solution, QAE-Sephadex (17-0190-01, GE Healthcare Japan Corp.) suspended in 10 mM HEPES-Na (pH 7.0) (hereinafter, also referred to as a “QAE-Sephadex suspension”) was added, and the mixture was shaken for 1 minute and left standing for 5 minutes to obtain a supernatant. To the supernatant, a QAE-Sephadex suspension was further added, and the mixture was shaken for 1 minute and left standing for 5 minutes. Then, the obtained supernatant was transferred to LumaPlate (PerkinElmer, Inc.) and assayed using a radiation counter (TopCount NXT, PerkinElmer, Inc.).
# The value of the sample reacted without the addition of both a test compound and PDE10A was defined as 0%, and the value of the sample reacted in the presence of PDE10A without the addition of a test compound was defined as 100%.
# [2] = system: Male C57BL/6 Cr mice; assay: Test on suppression of phencyclidine-induced hyperlocomotion in mice; type: in vivo, mouse; settings: locomotor activity, test compound 10 mg/kg oral, phencyclidine 5 mg/kg s.c. approx. 1 hour later, measured for 1 hour; for inhibition in vivo at 10 mg/kg: Mus musculus, po, 1 h
# Experimental: Male C57BL/6 Cr mice (Japan SLC, Inc.) (8 weeks old) were used in the experiment. A test compound was suspended at 1 mg/mL in a 0.5% hydroxypropylcellulose solution to prepare a suspension for administration. The suspension of the test compound or a solvent (0.5% hydroxypropylcellulose solution) was orally administered at a dose of 10 mL/kg to each mouse. After the administration, the mouse was immediately placed in a locomotor activity measurement apparatus (Muromachi Kikai Co., Ltd., locomotor activity measurement system SUPERMEX). Approximately 1 hour later, phencyclidine (5 mg/10 mL/kg) or a solvent (10 mL/kg saline) was subcutaneously administered to the mouse. The locomotor activity was measured from immediately after the subcutaneous administration to 1 hour later.
# Percent inhibition exceeding 100 means that when the activity of the phencyclidine administration control group was defined as 100, the activity of the group given a test compound was lower than that of the solvent administration control group.
# [3] = target: PDE10A (Homo sapiens (Human), UniProt Q9Y233); assay: Measurement of PDE10A inhibitory activity-2 (PDE10A fraction prepared from MOLT-4 cells); type: biochemical; settings: PDE10A fraction from MOLT-4 cells (peak around 250 mM NaCl)
# PDE10A, sequence (Q9Y233 whole entry): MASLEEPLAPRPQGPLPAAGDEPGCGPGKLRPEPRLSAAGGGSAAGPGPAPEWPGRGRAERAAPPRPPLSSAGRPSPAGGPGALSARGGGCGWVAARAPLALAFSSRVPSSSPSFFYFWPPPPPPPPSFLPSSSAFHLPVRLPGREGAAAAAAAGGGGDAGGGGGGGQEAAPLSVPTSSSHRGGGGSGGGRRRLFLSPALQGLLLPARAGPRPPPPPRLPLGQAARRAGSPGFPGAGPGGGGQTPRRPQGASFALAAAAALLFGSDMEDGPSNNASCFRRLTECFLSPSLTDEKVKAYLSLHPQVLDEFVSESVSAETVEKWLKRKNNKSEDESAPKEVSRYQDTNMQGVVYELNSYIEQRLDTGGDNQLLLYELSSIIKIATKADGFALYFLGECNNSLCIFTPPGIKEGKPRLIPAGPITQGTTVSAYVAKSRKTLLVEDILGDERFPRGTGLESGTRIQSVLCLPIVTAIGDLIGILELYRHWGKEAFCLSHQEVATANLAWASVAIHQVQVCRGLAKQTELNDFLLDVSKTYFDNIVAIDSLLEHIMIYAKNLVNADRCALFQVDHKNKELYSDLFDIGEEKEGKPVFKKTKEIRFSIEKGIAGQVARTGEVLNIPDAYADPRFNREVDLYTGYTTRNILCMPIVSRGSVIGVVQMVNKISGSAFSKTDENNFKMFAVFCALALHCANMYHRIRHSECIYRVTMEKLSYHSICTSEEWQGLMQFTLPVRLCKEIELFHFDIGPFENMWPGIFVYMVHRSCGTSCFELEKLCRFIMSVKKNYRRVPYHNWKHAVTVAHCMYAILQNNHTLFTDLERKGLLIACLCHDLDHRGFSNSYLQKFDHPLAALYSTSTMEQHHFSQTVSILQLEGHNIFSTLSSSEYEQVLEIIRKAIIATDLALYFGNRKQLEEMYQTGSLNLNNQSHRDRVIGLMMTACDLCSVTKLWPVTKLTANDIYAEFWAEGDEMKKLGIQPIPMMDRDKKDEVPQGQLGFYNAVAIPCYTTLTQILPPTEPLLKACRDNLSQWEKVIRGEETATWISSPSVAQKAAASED
# Procedure, shortened: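 Enzyme source was a PDE10A-containing fraction from MOLT-4 cell soluble extract, resolved by HiTrap Q anion exchange with a 0–0.8 M NaCl gradient and selected by cAMP-hydrolysing activity. IC50 determined with this fraction by the same procedure as the preceding PDE10A assay.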
# PDE10A (H-PDE10A2, Human Phosphodiesterase 10A2), sequence (Q9Y233 267-1055): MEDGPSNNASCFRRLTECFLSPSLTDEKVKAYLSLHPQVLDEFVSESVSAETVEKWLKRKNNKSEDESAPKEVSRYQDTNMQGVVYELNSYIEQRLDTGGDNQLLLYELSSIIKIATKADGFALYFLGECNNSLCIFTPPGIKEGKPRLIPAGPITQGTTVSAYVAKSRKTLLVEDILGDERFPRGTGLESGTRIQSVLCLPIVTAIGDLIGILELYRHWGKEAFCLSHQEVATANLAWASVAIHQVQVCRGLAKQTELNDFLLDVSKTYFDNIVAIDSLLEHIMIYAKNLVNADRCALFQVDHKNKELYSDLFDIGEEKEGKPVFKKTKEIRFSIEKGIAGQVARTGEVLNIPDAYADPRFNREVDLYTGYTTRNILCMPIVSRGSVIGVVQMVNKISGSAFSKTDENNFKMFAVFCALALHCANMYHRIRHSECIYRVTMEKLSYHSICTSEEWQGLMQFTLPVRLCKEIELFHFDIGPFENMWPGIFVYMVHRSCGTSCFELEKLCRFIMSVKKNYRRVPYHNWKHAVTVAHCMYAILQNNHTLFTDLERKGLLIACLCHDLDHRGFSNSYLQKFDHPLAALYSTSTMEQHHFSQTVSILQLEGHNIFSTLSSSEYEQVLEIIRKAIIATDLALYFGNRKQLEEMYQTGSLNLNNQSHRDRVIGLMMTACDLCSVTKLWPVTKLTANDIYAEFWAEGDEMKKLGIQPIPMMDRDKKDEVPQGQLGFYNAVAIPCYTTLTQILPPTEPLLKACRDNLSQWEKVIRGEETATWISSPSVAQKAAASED
structure (smiles),measurement,setting,value
"COCc1ccc(C(C)=O)c2sc(C(=O)Nc3ccc4c(C(=O)N5CC(OC)C5)cccc4n3)c(C)c12 [Example 107, 7-Acetyl-N-(5-((3-methoxyazetidin-1-yl)carbonyl)quinolin-2-yl)-4-(methoxymethyl)-3-methylbenzo[b]thiophene-2-carboxamide hydrobromide]",IC50,[1]; hydrobromide,0.73 nM
"CC(=O)c1ccc(C(C)=O)c2c(C)c(C(=O)Nc3cc(C(C)(C)O)c4ccccc4n3)sc12 [Example 5, 4,7-Diacetyl-N-(4-(2-hydroxypropan-2-yl)quinolin-2-yl)-3-methylbenzo[b]thiophene-2-carboxamide semisulfate]",IC50,[1],11 nM
"COCc1ccc(C(C)=O)c2sc(C(=O)Nc3cc(CN4CC[C@@H](O)C4)c4ccccc4n3)c(C)c12 [Example 40, (R)-7-Acetyl-N-(4-((3-hydroxypyrrolidin-1-yl)methyl)quinolin-2-yl)-4-(methoxymethyl)-3-methylbenzo[b]thiophene-2-carboxamide hydrochloride]",IC50,[1]; hydrochloride,0.65 nM
"COCc1cccc2nc(NC(=O)c3sc4c(C(C)=O)ccc(COC)c4c3C)ccc12 [Example 67, 7-Acetyl-4-(methoxymethyl)-N-(5-(methoxymethyl)quinolin-2-yl)-3-methylbenzo[b]thiophene-2-carboxamide]",IC50,[1],1.8 nM
"COCc1ccc(C(C)=O)c2sc(C(=O)Nc3ccc4c(CS(C)(=O)=O)cccc4n3)c(C)c12 [Example 109, 7-Acetyl-4-(methoxymethyl)-3-methyl-N-(5-((methylsulfonyl)methyl)quinolin-2-yl)benzo[b]thiophene-2-carboxamide]",IC50,[1],0.61 nM
"Br.COCc1ccc(C(C)=O)c2sc(C(=O)Nc3ccc4c(CS(C)(=O)=O)cccc4n3)c(C)c12 [Example 112, 7-Acetyl-4-(methoxymethyl)-3-methyl-N-(5-((methylsulfonyl)methyl)quinolin-2-yl)benzo[b]thiophene-2-carboxamide hydrobromide]",% inhibition,[2],57%
same,IC50,[1]; hydrobromide,0.84 nM
"COCc1ccc(C(C)=O)c2sc(C(=O)Nc3cc(C(C)(C)O)c4ccccc4n3)c(C)c12 [Example 27, 7-Acetyl-N-(4-(2-hydroxypropan-2-yl)quinolin-2-yl)-4-(methoxymethyl)-3-methylbenzo[b]thiophene-2-carboxamide hydrochloride]",IC50,[1]; hydrochloride,1.6 nM
"COCc1ccc(C(C)=O)c2sc(C(=O)Nc3ccc4c(CS(C)(=O)=O)cccc4n3)c(C)c12 [Example 111, 7-Acetyl-4-(methoxymethyl)-3-methyl-N-(5-((methylsulfonyl)methyl)quinolin-2-yl)benzo[b]thiophene-2-carboxamide methanesulfonate]",IC50,[1]; methanesulfonate,1.1 nM
"COCc1ccc(C(C)=O)c2sc(C(=O)Nc3ccc4c(C(=O)N5CC(OC)C5)cccc4n3)c(C)c12 [Example 103, 7-Acetyl-N-(5-((3-methoxyazetidin-1-yl)carbonyl)quinolin-2-yl)-4-(methoxymethyl)-3-methylbenzo[b]thiophene-2-carboxamide hydrochloride]",IC50,[1]; hydrochloride,0.31 nM
"CC(=O)c1ccc(C(C)=O)c2c(C)c(C(=O)Nc3cc(C(C)(C)O)c4ccccc4n3)sc12 [Example 3, 4,7-Diacetyl-N-(4-(2-hydroxypropan-2-yl)quinolin-2-yl)-3-methylbenzo[b]thiophene-2-carboxamide hydrochloride]",IC50,[1]; hydrochloride,5.9 nM
"COCc1ccc(C(C)=O)c2sc(C(=O)Nc3ccc4c(C(=O)N5CC(OC)C5)cccc4n3)c(C)c12 [Example 104, 7-Acetyl-N-(5-((3-methoxyazetidin-1-yl)carbonyl)quinolin-2-yl)-4-(methoxymethyl)-3-methylbenzo[b]thiophene-2-carboxamide benzenesulfonate]",IC50,[1]; benzenesulfonate,2.2 nM
"COCc1ccc(C(C)=O)c2sc(C(=O)Nc3ccc4c(C(=O)N5CC(OC)C5)cccc4n3)c(C)c12 [Example 105, 7-Acetyl-N-(5-((3-methoxyazetidin-1-yl)carbonyl)quinolin-2-yl)-4-(methoxymethyl)-3-methylbenzo[b]thiophene-2-carboxamide methanesulfonate]",IC50,[1]; methanesulfonate,2.1 nM
"CC(=O)c1ccc(C(C)=O)c2c(C)c(C(=O)Nc3cc(C(C)(C)O)c4ccccc4n3)sc12 [Example 4, 4,7-Diacetyl-N-(4-(2-hydroxypropan-2-yl)quinolin-2-yl)-3-methylbenzo[b]thiophene-2-carboxamide hydrobromide]",IC50,[1]; hydrobromide,5.8 nM
"COCc1ccc(C(C)=O)c2sc(C(=O)Nc3ccc4c(CS(C)(=O)=O)cccc4n3)c(C)c12 [Example 110, 7-Acetyl-4-(methoxymethyl)-3-methyl-N-(5-((methylsulfonyl)methyl)quinolin-2-yl)benzo[b]thiophene-2-carboxamide hydrochloride]",inhibition in vivo at 10 mg/kg,[2],76%
same,IC50,[1]; hydrochloride,1.4 nM
same,IC50,[3],0.23 nM
"COCc1ccc(C(C)=O)c2sc(C(=O)Nc3cc(C(C)(C)O)c4ccccc4n3)c(C)c12 [Example 28, 7-Acetyl-N-(4-(2-hydroxypropan-2-yl)quinolin-2-yl)-4-(methoxymethyl)-3-methylbenzo[b]thiophene-2-carboxamide hydrobromide]",IC50,[1]; hydrobromide,2 nM
"CC(=O)c1ccc(C(C)=O)c2c(C)c(C(=O)Nc3cc(C(C)(C)O)c4ccccc4n3)sc12 [Example 6, 4,7-Diacetyl-N-(4-(2-hydroxypropan-2-yl)quinolin-2-yl)-3-methylbenzo[b]thiophene-2-carboxamide methanesulfonate]",IC50,[1]; methanesulfonate,5.1 nM
"COCc1ccc(C(C)=O)c2sc(C(=O)Nc3ccc4c(COP(=O)(O)O)cccc4n3)c(C)c12 [Example 87, (2-(7-Acetyl-4-(methoxymethyl)-3-methylbenzo[b]thiophene-2-carboxamido)quinolin-5-yl)methyl dihydrogen phosphate hydrochloride]",inhibition in vivo at 10 mg/kg,[2],92%
same,IC50,[3],0.6 nM
"COCc1ccc(C(C)=O)c2sc(C(=O)Nc3cc(CN4CC[C@@H](O)C4)c4ccccc4n3)c(C)c12 [Example 41, (R)-7-Acetyl-N-(4-((3-hydroxypyrrolidin-1-yl)methyl)quinolin-2-yl)-4-(methoxymethyl)-3-methylbenzo[b]thiophene-2-carboxamide p-toluenesulfonate]",IC50,[1]; p-toluenesulfonate,1.3 nM
"COCc1ccc(C(C)=O)c2sc(C(=O)Nc3cc(N4CCN(C)CC4)c4ccccc4n3)c(C)c12 [Example 57, 7-Acetyl-4-(methoxymethyl)-3-methyl-N-(4-(4-methylpiperazin-1-yl)quinolin-2-yl)benzo[b]thiophene-2-carboxamide]",inhibition in vivo at 10 mg/kg,[2],86%
same,IC50,[3],1.6 nM
"COCc1ccc(C(C)=O)c2sc(C(=O)Nc3ccc4c(C(=O)N(C)C)cccc4n3)c(C)c12 [Example 97, 2-(7-Acetyl-4-(methoxymethyl)-3-methylbenzo[b]thiophene-2-carboxamido)-N,N-dimethylquinoline-5-carboxamide]",inhibition in vivo at 10 mg/kg,[2],50%
same,IC50,[3],0.26 nM
"COCc1ccc(C(C)=O)c2sc(C(=O)Nc3cc(CN4CCOCC4)c4ccccc4n3)c(C)c12 [Example 44, 7-Acetyl-4-(methoxymethyl)-3-methyl-N-(4-(morpholinomethyl)quinolin-2-yl)benzo[b]thiophene-2-carboxamide]",inhibition in vivo at 10 mg/kg,[2],104%
same,IC50,[3],2.1 nM
"[2H]C([2H])([2H])OCc1cccc2nc(NC(=O)c3sc4c(C(C)=O)ccc(COC)c4c3C)ccc12 [Example 117, 7-Acetyl-4-(methoxymethyl)-N-(5-((^2H3)methoxymethyl)quinolin-2-yl)-3-methylbenzo[b]thiophene-2-carboxamide]",inhibition in vivo at 10 mg/kg,[2],57%
same,IC50,[3],0.61 nM
"COCc1ccc(C(C)=O)c2sc(C(=O)Nc3ccc4c(COC(=O)CN)cccc4n3)c(C)c12 [Example 85, (2-(7-Acetyl-4-(methoxymethyl)-3-methylbenzo[b]thiophene-2-carboxamido)quinolin-5-yl)methyl-2-aminoacetate]",inhibition in vivo at 10 mg/kg,[2],85%
same,IC50,[3],1.1 nM
